Experiments:
[1] = target: T1, rat B1R (bradykinin receptor 1) (Rattus norvegicus, UniProt P97583); assay: FLIPR Ca2+ assay (Fluo-4) on CHO K1 cells stably transfected with the B1R gene of the rat (rB1R cells): % inhibition at 10 μM / IC50, agonist Des-Arg9-bradykinin; format: cell-based; conditions: CHO-K1, rat B1R
T1 construct: expressed in transfected cells; host or cells: CHO K1 cells
T1 sequence (P97583 1-337): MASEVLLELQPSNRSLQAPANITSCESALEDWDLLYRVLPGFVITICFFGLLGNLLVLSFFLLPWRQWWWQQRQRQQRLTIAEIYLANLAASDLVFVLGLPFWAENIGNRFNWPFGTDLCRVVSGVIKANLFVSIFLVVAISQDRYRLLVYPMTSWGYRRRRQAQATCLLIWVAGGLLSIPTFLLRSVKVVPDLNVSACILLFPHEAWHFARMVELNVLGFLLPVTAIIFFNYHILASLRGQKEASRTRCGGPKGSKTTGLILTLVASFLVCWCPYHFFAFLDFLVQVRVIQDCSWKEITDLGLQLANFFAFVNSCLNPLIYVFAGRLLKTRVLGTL
In short: (§1)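 Antagonism is measured as the drop in peak Fluo-4 Ca2+ signal when the EC80 agonist follows 10–20 min compound exposure. The single-point screen uses 10 μM; IC50 uses several concentrations. Values are given as % of maximal achievable inhibition.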

[2] = target: T2, human B1R (bradykinin receptor 1) (Homo sapiens, UniProt P46663); assay: FLIPR Ca2+ assay (Fluo-4) on CHO K1 cells stably transfected with the human B1R gene (hB1R cells): % inhibition at 10 μM / IC50, agonist Lys-Des-Arg9-bradykinin; format: cell-based; conditions: CHO-K1, human B1R
T2 construct: expressed in transfected cells; host or cells: CHO K1 cells
T2 sequence (P46663 1-353): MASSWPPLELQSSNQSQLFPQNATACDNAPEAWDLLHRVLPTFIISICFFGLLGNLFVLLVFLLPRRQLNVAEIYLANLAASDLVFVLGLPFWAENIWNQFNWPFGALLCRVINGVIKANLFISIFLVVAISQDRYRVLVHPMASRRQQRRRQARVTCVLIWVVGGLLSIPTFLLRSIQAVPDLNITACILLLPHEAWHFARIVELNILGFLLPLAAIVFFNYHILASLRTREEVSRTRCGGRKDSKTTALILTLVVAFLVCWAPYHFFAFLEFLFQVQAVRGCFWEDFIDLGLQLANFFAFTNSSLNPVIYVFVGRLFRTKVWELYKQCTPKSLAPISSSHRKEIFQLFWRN
In short: as §1

Row | SMILES | inhibition at 10 µM [1] [%] | inhibition at 10 µM [2] [%]
1 | Cc1cc(OC(F)(F)F)ccc1C(=O)N[C@@H]1CCc2ccc(C(=O)N3CCC4(CC3)CCN(c3ccncc3)C4)cc21 [Example H-75, 2-Methyl-N-[(1R)-6-(3-pyridin-4-yl-3,8-diazaspiro[4.5]decane-8-carbonyl)-2,3-dihydro-1H-inden-1-yl]-4-(trifluoromethyloxy)-benzamide] | 64 | 29
2 | O=C(Cc1ccccc1Cl)NC1CCc2ccc(C(=O)N3CCC4(CC3)CCN(c3ccncc3)CC4)cc21 (stereo not drawn) [Ind_CC-007, 2-(2-chlorophenyl)-N-[6-(9-pyridin-4-yl-3,9-diazaspiro[5.5]undecane-3-carbonyl)-2,3-dihydro-1H-inden-1-yl]-acetamide] | 102 | 99
3 | O=C(NC1CCc2ccc(C(=O)N3CCC4(CCC(n5ccnc5)CC4)CC3)cc21)c1ccccc1Cl (stereo not drawn) [Example H-131, 2-Chloro-N-[6-[9-(1H-imidazol-1-yl)-3-azaspiro[5.5]undecane-3-carbonyl]-2,3-dihydro-1H-inden-1-yl]-benzamide] | 102 | 74
4 | CC1(C)Cc2ccc(C(=O)N3CCC4(CC3)CCN(c3ccncc3)CC4)cc2C1NC(=O)c1ccccc1C(F)(F)F (stereo not drawn) [Ind_CC-064, N-[2,2-dimethyl-6-(9-pyridin-4-yl-3,9-diazaspiro[5.5]undecane-3-carbonyl)-1,3-dihydro-inden-1-yl]-2-(trifluoromethyl)-benzamide] | 101 | 95
5 | COc1ccc(C(=O)NC2CCc3ccc(C(=O)N4CCC5(CC4)CCN(c4ccncc4)C5)cc32)c(Cl)c1 (stereo not drawn) [IND_CC-212, 2-Chloro-4-methoxy-N-[6-(2-pyridin-4-yl-2,8-diazaspiro[4.5]decane-8-carbonyl)-2,3-dihydro-1H-inden-1-yl]-benzamide] | 102 | 58
6 | O=C(c1ccc2c(c1)[C@H](NS(=O)(=O)c1ccccc1F)CC2)N1CCC2(CCN(c3ccncc3)CC2)C1 [Example H-116, 2-Fluoro-N-[(1R)-6-(8-pyridin-4-yl-3,8-diazaspiro[4.5]decane-3-carbonyl)-2,3-dihydro-1H-inden-1-yl]-benzenesulfonic acid amide] | 101 | 100
7 | O=C(N[C@@H]1CCc2ccc(C(=O)N3CCC4(CCN(c5ccncc5)CC4)C3)cc21)c1cc(F)ccc1Cl [Example H-141, 2-Chloro-5-fluoro-N-[(1R)-6-(8-pyridin-4-yl-3,8-diazaspiro[4.5]decane-3-carbonyl)-2,3-dihydro-1H-inden-1-yl]-benzamide] | 101 | 99
8 | O=C(c1cccc2c1CC[C@H]2NS(=O)(=O)c1ccccc1Cl)N1CCC2(CC1)CCN(c1ccncc1)CC2 [Example H-167, 2-Chloro-N-[(1R)-4-(9-pyridin-4-yl-3,9-diazaspiro[5.5]undecane-3-carbonyl)-2,3-dihydro-1H-inden-1-yl]-benzenesulfonic acid amide] | 81 | 35
9 | CC1(C)Cc2ccc(C(=O)N3CCC4(CC3)CCN(c3ccncc3)CC4)cc2C1NC(=O)c1ccc(Cl)cc1Cl (stereo not drawn) [Ind_CC-067, 2,4-dichloro-N-[2,2-dimethyl-6-(9-pyridin-4-yl-3,9-diazaspiro[5.5]undecane-3-carbonyl)-1,3-dihydro-inden-1-yl]-benzamide] | 101 | 94
10 | O=C(NC1CCc2ccc(C(=O)N3CCC4(CC3)CCN(c3cccnc3)CC4)cc21)c1ccccc1Cl (stereo not drawn) [Ind_CC-096, 2-chloro-N-[6-(9-pyridin-3-yl-3,9-diazaspiro[5.5]undecane-3-carbonyl)-2,3-dihydro-1H-inden-1-yl]-benzamide] | 101 | 91
11 | O=C(NC1CCc2ccc(C(=O)N3CCC4(CCC(Oc5ccncc5)CC4)CC3)cc21)c1ccccc1Cl (stereo not drawn) [Example H-08] | 100 | 71
12 | O=C(NC1CCCCc2ccc(C(=O)N3CCC4(CC3)CCN(c3ccncc3)CC4)cc21)c1ccccc1Cl (stereo not drawn) [Ind_CC-120, 2-chloro-N-[3-(9-pyridin-4-yl-3,9-diazaspiro[5.5]undecane-3-carbonyl)-6,7,8,9-tetrahydro-5H-benzocyclohepten-5-yl]-benzamide] | 99 | 56
13 | O=C(N[C@@H]1CCc2ccc(C(=O)N3CCCC4(CCN(c5ccncc5)CC4)C3)cc21)c1ccccc1Cl [Example H-54, 2-Chloro-N-[(1R)-6-(9-pyridin-4-yl-2,9-diazaspiro[5.5]undecane-2-carbonyl)-2,3-dihydro-1H-inden-1-yl]-benzamide] | 102 | 98
14 | O=C(N[C@@H]1CCc2ccc(C(=O)N3CCC4(CCC(N5CCn6ncnc6C5)CC4)CC3)cc21)c1ccccc1Cl [Example H-55, 2-Chloro-N-[(1R)-6-[9-(5,6,7,8-tetrahydro-[1,2,4]triazolo[1,5-a]pyrazin-7-yl)-3-azaspiro[5.5]undecane-3-carbonyl]-2,3-dihydro-1H-inden-1-yl]-benzamide] | 87 | 42
15 | COc1ccc(C(=O)N[C@@H]2CCc3ccc(C(=O)N4CCC5(CCN(c6ccncc6)CC5)C4)cc32)c(F)c1 [Example H-108, 2-Fluoro-4-methoxy-N-[(1R)-6-(8-pyridin-4-yl-3,8-diazaspiro[4.5]decane-3-carbonyl)-2,3-dihydro-1H-inden-1-yl]-benzamide] | 111 | 100
16 | O=C(N[C@H]1CCc2c(C(=O)N3CCC4(CCN(c5ccncc5)CC4)C3)cccc21)c1ccccc1Cl [Example H-161, 2-Chloro-N-[(1S)-4-(8-pyridin-4-yl-3,8-diazaspiro[4.5]decane-3-carbonyl)-2,3-dihydro-1H-inden-1-yl]-benzamide] | 104 | 89
17 | O=C(N[C@@H]1CCCc2cc(F)c(C(=O)N3CCC4(CC3)CCN(c3ccncc3)CC4)cc21)c1ccccc1Cl [Example H-88] | 104 | 100
18 | COc1ccc(C(=O)NC2CC(C)(C)c3ccc(C(=O)N4CCC5(CC4)CCN(c4ccncc4)CC5)cc32)c(F)c1 (stereo not drawn) [IND_CC-312, N-[3,3-Dimethyl-6-(3-pyridin-4-yl-3,9-diazaspiro[5.5]undecane-9-carbonyl)-1,2-dihydro-inden-1-yl]-2-fluoro-4-methoxy-benzamide] | 102 | 44
19 | CC1(C)CC(NC(=O)c2ccc(Cl)s2)c2cc(C(=O)N3CCC4(CC3)CCN(c3ccncc3)CC4)ccc21 (stereo not drawn) [Ind_CC-054, 5-chloro-N-[3,3-dimethyl-6-(9-pyridin-4-yl-3,9-diazaspiro[5.5]undecane-3-carbonyl)-1,2-dihydro-inden-1-yl]-thiophene-2-carboxylic acid amide] | 102 | 96
20 | O=C(NC1CCc2ccc(C(=O)N3CCC4(CCN(c5ccncc5)CC4)C3)cc21)c1ccc(F)cc1Cl (stereo not drawn) [IND_CC-277, 2-Chloro-4-fluoro-N-[6-(8-pyridin-4-yl-2,8-diazaspiro[4.5]decane-2-carbonyl)-2,3-dihydro-1H-inden-1-yl]-benzamide] | 105 | 100
21 | CC1(C)Cc2ccc(C(=O)N3CCC4(CC3)CCN(c3ccncc3)CC4)cc2C1NC(=O)c1ccc(Cl)s1 (stereo not drawn) [Ind_CC-066, 5-chloro-N-[2,2-dimethyl-6-(9-pyridin-4-yl-3,9-diazaspiro[5.5]undecane-3-carbonyl)-1,3-dihydro-inden-1-yl]-thiophene-2-carboxylic acid amide] | 98 | 82
22 | CN(C(=O)c1c(Cl)cccc1Cl)C1CCc2ccc(C(=O)N3CCC4(CC3)CCN(c3ccncc3)CC4)cc21 (stereo not drawn) [IND_CC-268, 2,6-Dichloro-N-methyl-N-[6-(9-pyridin-4-yl-3,9-diazaspiro[5.5]undecane-3-carbonyl)-2,3-dihydro-1H-inden-1-yl]-benzamide] | 108 | 99
23 | O=C(c1cccc2c1CC[C@@H]2NS(=O)(=O)c1ccccc1Cl)N1CCC2(CCN(c3ccncc3)CC2)C1 [Example H-165, 2-Chloro-N-[(1S)-4-(8-pyridin-4-yl-3,8-diazaspiro[4.5]decane-3-carbonyl)-2,3-dihydro-1H-inden-1-yl]-benzenesulfonic acid amide] | 44 | 44
24 | CC1(C)Cc2ccc(C(=O)N3CCC4(CC3)CCN(c3ccncc3)CC4)cc2C1NC(=O)c1ccccc1Cl (stereo not drawn) [IND_CC-291, 2-Chloro-N-[2,2-dimethyl-6-(9-pyridin-4-yl-3,9-diazaspiro[5.5]undecane-3-carbonyl)-1,3-dihydro-inden-1-yl]-benzamide] | 104 | 98

Reference: patent US8455475B2 (Gruenenthal GmbH, priority 2009, dated 2013)
